The subject of assay [1] is TNFα production in RAW 264.7 macrophage cell line. Nature of the assay: Mouse TNF alpha quantification assay (LPS-stimulated macrophages, ELISA). Format: cell-based. The settings on record: RAW264.7, RAW 264.7 murine leukemia virus transformed macrophage cell lines, LPS stimulation, read-out: TNF-α % Inhibition at 30 μM.
For assay [2], the system named is IL6 production in RAW 264.7 macrophage cell line. The assay is described as follows: Mouse IL6 quantification assay (LPS-stimulated macrophages, ELISA). It is filed as cell-based. As to conditions: RAW264.7, RAW 264.7 murine leukemia virus transformed macrophage cell lines, LPS stimulation, read-out: IL-6 % Inhibition at 30 μM. A general note: An ELISA detects its analyte on a solid surface through an enzyme-linked reagent.

`O=S(=O)(Oc1cc(C(F)(F)F)cc(C(F)(F)F)c1)N1CCc2ccccc2C1` [drawing 2062]: the inhibition (in general, the share of the control response that was lost under treatment) at 30 µM was 0% in assay [1] and 51 to 75% in assay [2].
Take `CC(C)Oc1ccc(-c2csc3c(O)nc(-c4nccn4C)nc23)cn1`: the inhibition at 30 µM in assay [1] and in assay [2] was 76 to 100% throughout.
With `O=C(Nc1nnc(-c2ccccn2)[nH]1)c1ccc(=O)[nH]n1` [drawing 2003], the inhibition at 30 µM in assay [1] fell in the range of 1 to 25%; in assay [2], 26 to 50%.
Consider `COc1ccccc1-c1csc2c(O)nc(-c3ccccn3)nc12` [drawing 2262], for which the inhibition at 30 µM was in the range of 51 to 75% in assay [1] and 76 to 100% in assay [2].
Taken in the same sequence, the figures for `O=C(NCCc1cccnc1)c1cc2nc(-c3ccccn3)nc(O)c2s1` [drawing 2236] were 1 to 25% and 26 to 50%.
As for `Oc1nc(-c2ccccn2)nc2c(-c3cc(Cl)cc(Cl)c3)csc12` [drawing 2241], the inhibition at 30 µM is 1 to 25% in assay [1] and 0% in assay [2].
Taken in the same sequence, the figures for `COCCNc1nc(-c2nccn2C)nc2sc(-c3ccccc3)c(-c3ccncc3)c12` [drawing 2423] were 1 to 25% and 51 to 75%.
In the case of `O=C(Nc1nc(-c2ccccn2)cs1)C1COc2ccccc2O1` (stereo not shown) [drawing 2007], the inhibition at 30 µM is 1 to 25% in assay [1] and 0% in assay [2].
In the case of `CC(C)Oc1ccc(-c2c(-c3ccccc3)sc3c(O)nc(-c4nccn4C)nc23)cc1F` [drawing 2438], the inhibition at 30 µM was 0% in assay [1] and 1 to 25% in assay [2].
For `CN1CCN(c2nc(-c3ccccn3)nc3scc(C(=O)NCCc4cnc(O)nc4)c23)CC1` [drawing 2291], the inhibition at 30 µM in assay [1] and in assay [2] was 26 to 50% each time.
Turning to `Oc1nc(-c2ccccn2)nc2c(-c3ccc(C4CCC4)cc3)csc12` [drawing 2257], the inhibition at 30 µM in assay [1] was 0%; in assay [2], 51 to 75%.
`COc1cnc(-c2nccn2C)nc1O` [drawing 2340]: the values for the inhibition at 30 µM in assay [1] and in assay [2] were 0% and 1 to 25%, respectively.
As to `Cn1ccnc1-c1nc(O)c2scc(-c3cccc(Cl)c3)c2n1` [drawing 2444], the inhibition at 30 µM in assay [1] is 0%; in assay [2], 51 to 75%.
As for `O=C(COc1ccccc1)Nc1nnc(-c2ccccn2)[nH]1` [drawing 1993], the inhibition at 30 µM is 0% in assay [1] and 1 to 25% in assay [2].
For `O=S(=O)(c1ccccc1)N1CCCc2c(O)nc(-c3ccccn3)nc21` [drawing 2084], the inhibition at 30 µM in assay [1] was 1 to 25%; in assay [2] it was 0%.
Regarding `O=C(Cc1cccc(F)c1)Nc1nc(-c2ccccn2)cs1` [drawing 2018], the inhibition at 30 µM in assay [1] and in assay [2] was 1 to 25% in each case.
`Cc1nc(-c2ccccn2)nc(O)c1CCC(=O)Nc1ccc(C(C)C)cc1` [drawing 2034]: the inhibition at 30 µM is 1 to 25% in assay [1] and 0% in assay [2].
For `NC(=O)C1CCN(c2nc(-c3ccccn3)nc3scc(-c4ccccc4)c23)CC1` [drawing 2164] the same measures were 1 to 25% and 1 to 25%.
For `COC(=O)c1c(C)sc2c(N)nc(-c3ccccn3)nc12` [drawing 2335] the same measures were 1 to 25% and 76 to 100%.
Consider `COCCCC1CCN(C(=O)c2csc3c(O)nc(-c4ccccn4)nc23)CC1` [drawing 2104], for which the inhibition at 30 µM is 1 to 25% in assay [1] and 51 to 75% in assay [2].
As for `O=C(c1csc2c(O)nc(-c3cccnc3)nc12)N1CCNC(Cc2cccc(F)c2)C1` (stereo not shown), the figures for the inhibition at 30 µM in assay [1] and in assay [2] were 1 to 25% and 26 to 50%, respectively.
As to `Oc1nc(-c2ccccn2)nc2c(-c3ccccc3)c(-c3ccncc3)sc12` [drawing 2375], the inhibition at 30 µM in assay [1] was 0%; in assay [2] it was 1 to 25%.
With `Cc1sc2c(O)nc(-c3ccccn3)nc2c1C(=O)N1CCN(c2ccccc2)CC1` [drawing 2332], the inhibition at 30 µM in assay [1] lay within 1 to 25%; in assay [2], 26 to 50%.
As for `CC(C)(C(=O)Nc1ccnc(-c2ccccn2)n1)c1ccc(C#N)cc1` [drawing 2177], the inhibition at 30 µM is 0% in assay [1] and 1 to 25% in assay [2].
For `COc1ncc(CCNC(=O)c2csc3nc(-c4ccccn4)nc(N4CCOCC4)c23)cn1` [drawing 2175] the same measures were 0% and 1 to 25%.
As to `O=C(CC1CCCC1)NCC(=O)Nc1nnc(-c2ccccn2)[nH]1` [drawing 1962], the inhibition at 30 µM in assay [1] and in assay [2] was 1 to 25% each time.
On to `CCN(CC)CCOc1nc(-c2nccn2C)nc2sc(-c3ccccc3)c(-c3ccccc3)c12` [drawing 2400], for which the inhibition at 30 µM in assay [1] and in assay [2] was 76 to 100% throughout.
On to `OC1CCCN(c2nc(-c3ccccn3)nc3scc(-c4ccccc4)c23)C1` (stereo not shown) [drawing 2154], for which the inhibition at 30 µM in assay [1] is 1 to 25%; in assay [2], 26 to 50%.
Take `O=C1CCN(c2nc(-c3ccccn3)nc3scc(-c4ccccc4)c23)CC1` [drawing 2163]: the inhibition at 30 µM in assay [1] and in assay [2] was 1 to 25% in each case.
Turning to `COCC1CCN(C(=O)c2csc3c(O)nc(-c4ccccn4)nc23)CC1` [drawing 2102], the inhibition at 30 µM in assay [1] was 1 to 25%; in assay [2], 76 to 100%.
As for `CC(C(=O)Nc1nc(-c2ccccn2)nc2sccc12)c1ccc(C#N)cc1` (stereo not shown) [drawing 2210], the inhibition at 30 µM in assay [1] was 0%; in assay [2] it was 51 to 75%.
On to `O=C(Nc1nnc(-c2ccccn2)[nH]1)c1ccn(-c2ccccc2)n1` [drawing 1935], for which the inhibition at 30 µM in assay [1] and in assay [2] was 1 to 25% in each case.
Take `COc1ccc(COCC(=O)Nc2nnc(-c3ccccn3)[nH]2)cc1` [drawing 2004]: the inhibition at 30 µM in assay [1] lay in the range of 1 to 25%; in assay [2], 26 to 50%.
As to `Cc1sc2c(O)nc(-c3nccn3C)nc2c1-c1ccc(OCC(C)C)nc1` [drawing 2427], the inhibition at 30 µM in assay [1] and in assay [2] was 1 to 25% in each case.
Consider `OCCn1ncc2c1CCCC2Nc1nc(-c2ccccn2)nc2scc(-c3ccccc3)c12` (stereo not shown), for which the inhibition at 30 µM in assay [1] and in assay [2] was 26 to 50% in each case.
In the case of `O=C(c1cocn1)N1CCCc2c(O)nc(-c3ccccn3)nc21` [drawing 2081], the inhibition at 30 µM in assay [1] and in assay [2] was 1 to 25% in each case.
For the compound `Cc1sc2c(O)nc(-c3nccn3C)nc2c1-c1ccccc1Cl` [drawing 2429], the inhibition at 30 µM in assay [1] fell in the range of 1 to 25%; in assay [2], 26 to 50%.
`O=C(c1csc2c(O)nc(-c3ccccn3)nc12)N1CCOC(c2ccccc2Cl)C1` (stereo not shown) [drawing 2194]: the inhibition at 30 µM lay within 1 to 25% in assay [1] and 76 to 100% in assay [2].
On to `Cn1cnc(-c2nc(O)c3c(-c4ccccc4)c(-c4ccc(CNC(=O)OC(C)(C)C)cc4)sc3n2)c1` [drawing 2364], for which the values for the inhibition at 30 µM in assay [1] and in assay [2] were 0% and 1 to 25%, respectively.
For `c1ccc(-c2csc3nc(-c4ccccn4)nc(N4CCOCC4)c23)cc1` [drawing 2155] the same measures were 1 to 25% and 1 to 25%.
Regarding `O=C(c1csc2c(O)nc(-c3ccccn3)nc12)N1CCOC(c2nccs2)C1` (stereo not shown) [drawing 2171], the results for the inhibition at 30 µM in assay [1] and in assay [2] were 1 to 25% and 51 to 75%, respectively.

Values taken from US10940139B2, “Compounds that interact with the Ras superfamily for the treatment of cancers, inflammatory diseases, rasopathies, and fibrotic disease” (Shy Therapeutics LLC, priority 2017, dated 2021).
